Reference: PMC5026937 (Antiviral research, 2016)
“Also recorded” adds a separate entry of the source.

How the values were obtained:
[1] = system: clinically isolated influenza A and B viruses; type: cell-based
[2] = system: isomerase activity of CypA; conditions: ref Ni et al., 2009; cited from earlier work
[3] = system: A/WSN/33 (H1N1); type: cell-based
[4] = system: A/Udorn/72 (H3N2); type: cell-based
[5] = system: A/Switzerland/9715293/2013 (H3N2); type: cell-based
[6] = system: A/California/07/2009 (H1N1); type: cell-based
[7] = system: A/Texas/04/2009 (H1N1); type: cell-based
[8] = system: A/Denmark/524/2009 (H1N1); type: cell-based
[9] = system: A/Denmark/528/2009 (H1N1); type: cell-based
[10] = system: B/Wisconsin/1/2010 (Yamagata); type: cell-based
[11] = system: B/Brisbane/60/2008 (Victoria); type: cell-based
[12] = system: B/Phuket/3073/2013 (Yamagata); type: cell-based
[13] = system: A/WSN/33 (H1N1); type: cell-based, Influenza A virus
[14] = biological target: A/WSN/33 (H1N1) viral polymerase activity (Influenza A virus, UniProt P15682); type: cell-based, influenza A/WSN/33 virus
A/WSN/33 (H1N1) viral polymerase activity, sequence (P15682 whole entry, looked up): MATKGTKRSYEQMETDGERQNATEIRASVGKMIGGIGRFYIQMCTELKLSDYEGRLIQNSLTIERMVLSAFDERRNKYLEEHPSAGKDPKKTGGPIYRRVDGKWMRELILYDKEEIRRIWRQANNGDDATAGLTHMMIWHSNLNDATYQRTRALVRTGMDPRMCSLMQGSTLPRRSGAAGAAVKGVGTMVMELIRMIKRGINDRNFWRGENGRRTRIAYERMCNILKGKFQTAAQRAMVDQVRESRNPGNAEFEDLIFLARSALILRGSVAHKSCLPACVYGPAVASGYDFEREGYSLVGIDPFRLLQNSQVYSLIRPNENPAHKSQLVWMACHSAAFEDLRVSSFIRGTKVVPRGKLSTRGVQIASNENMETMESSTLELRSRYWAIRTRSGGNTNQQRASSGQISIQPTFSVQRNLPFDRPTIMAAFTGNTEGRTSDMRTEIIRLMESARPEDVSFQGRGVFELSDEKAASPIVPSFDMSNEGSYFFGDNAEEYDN

Row | Compound | Sensitivity of influenza strain to drug [3] | Sensitivity of influenza strain to drug [4] | Sensitivity of influenza strain to drug [5] | Sensitivity of influenza strain to drug [6] | Sensitivity of influenza strain to drug [7] | Sensitivity of influenza strain to drug [8] | Sensitivity of influenza strain to drug [9] | Sensitivity of influenza strain to drug [10] | Sensitivity of influenza strain to drug [11] | Sensitivity of influenza strain to drug [12] | other results
1 | O=C(NC(=O)c1c(F)cccc1Cl)NC1c2ccccc2-c2ccccc21 [TMN355 (2)] |  |  |  |  |  |  |  |  |  |  | effect on replication of several influenza A and B strains [1]: had no effect on the replication; potency in inhibiting the isomerase activity of CypA relative to CsA (1) [2]: 27 times
2 | CCC(CC)O[C@@H]1C=C(C(=O)O)C[C@H](N)[C@H]1NC(C)=O [Oseltamivir carboxylate, oseltamivir carboxylate] | S | S | S | S | R (H275Y) | S | R (H275Y) | S | S | S | antiviral effect by time of addition [13]: potent antiviral effect even when added 8 hours post initial viral infection
3 | Cc1onc(-c2ccccc2)c1C(=O)N1CCN(c2ccc([N+](=O)[O-])cc2Cl)CC1 [nucleozin (21), nucleozin] |  |  |  |  |  |  |  |  |  |  | viral polymerase activity (normalized luciferase ratio) [14]: completely inhibited the viral polymerase activity
4 | Cyclosporine C [CsC (3)] |  |  |  |  |  |  |  |  |  |  | antiviral efficacy against A/WSN/33 (H1N1) compared with CsA (1) [3]: less active; also recorded: slightly less effective than CsA (1)
5 | NC12CC3CC(CC(C3)C1)C2 [Amantadine, amantadine] | R (S31N) | S | R (S31N) | R (S31N) | R (S31N) | R(S31N) | R (S31N) | R | R | R | 
